The source made the active and inactive calls. The rule behind the calls is not given here.
Columns and labels:
Rotala indica [1] = test: Post-emergence herbicidal activity against Rotala indica assessed as bleaching of stem/leaf parts; type: functional, organism-based
Ammannia multiflora [2] = test: Pre-emergence herbicidal activity against Ammannia multiflora at 33 g a.i/ha measured after 14 days; type: functional, organism-based
Echinochloa oryzicola [3] = test: Pre-emergence herbicidal activity against Echinochloa oryzicola at 33 g a.i/ha measured after 14 days; type: functional, organism-based
[4] = system: Schoenoplectiella juncoides; test: Pre-emergence herbicidal activity against Schoenoplectiella juncoides assessed as bleaching of stem/leaf parts; type: functional, organism-based
Echinochloa oryzicola [5] = test: Pre-emergence herbicidal activity against Echinochloa oryzicola assessed as bleaching of stem/leaf parts; type: functional, organism-based
Lindernia procumbens [6] = test: Pre-emergence herbicidal activity against Lindernia procumbens at 500 g a.i/ha measured after 14 days; type: functional, organism-based
Rotala indica [7] = test: Pre-emergence herbicidal activity against Rotala indica assessed as bleaching of stem/leaf parts; type: functional, organism-based
Oryza sativa [8] = test: Phytotoxicity against Oryza sativa cv. Koshihikari (rice) at 33 g a.i/ha measured after 14 days; type: organism-based; conditions: in vivo, 336 h
Lindernia procumbens [9] = test: Pre-emergence herbicidal activity against Lindernia procumbens at 33 g a.i/ha measured after 14 days; type: functional, organism-based
[10] = system: Schoenoplectiella juncoides; test: Pre-emergence herbicidal activity against Schoenoplectiella juncoides at 100 g a.i/ha measured after 14 days; type: functional, organism-based
Lindernia procumbens [11] = test: Pre-emergence herbicidal activity against Lindernia procumbens assessed as bleaching of stem/leaf parts; type: functional, organism-based
[12] = system: Schoenoplectiella juncoides; test: Pre-emergence herbicidal activity against Schoenoplectiella juncoides at 500 g a.i/ha measured after 14 days; type: functional, organism-based
Cyperus difformis [13] = test: Pre-emergence herbicidal activity against Cyperus difformis assessed as bleaching of stem/leaf parts; type: functional, organism-based
Cyperus difformis [14] = test: Pre-emergence herbicidal activity against Cyperus difformis at 33 g a.i/ha measured after 14 days; type: functional, organism-based
Pontederia vaginalis [15] = test: Pre-emergence herbicidal activity against Monochoria vaginalis at 33 g a.i/ha measured after 14 days; type: functional, organism-based
Ammannia multiflora [16] = test: Pre-emergence herbicidal activity against Ammannia multiflora assessed as bleaching of stem/leaf parts; type: functional, organism-based
Ammannia multiflora [17] = test: Pre-emergence herbicidal activity against Ammannia multiflora at 100 g a.i/ha measured after 14 days; type: functional, organism-based
Pontederia vaginalis [18] = test: Pre-emergence herbicidal activity against Monochoria vaginalis assessed as bleaching of stem/leaf parts; type: functional, organism-based
Elatine triandra [19] = test: Pre-emergence herbicidal activity against Elatine triandra at 33 g a.i/ha measured after 14 days; type: functional, organism-based
Ammannia multiflora [20] = test: Post-emergence herbicidal activity against Ammannia multiflora assessed as bleaching of stem/leaf parts; type: functional, organism-based
Rotala indica [21] = test: Pre-emergence herbicidal activity against Rotala indica at 500 g a.i/ha measured after 14 days; type: functional, organism-based
[22] = system: Schoenoplectiella juncoides; test: Post-emergence herbicidal activity against Schoenoplectiella juncoides assessed as bleaching of stem/leaf parts; type: functional, organism-based; also: test concentration or dose not given here
Pontederia vaginalis [23] = test: Pre-emergence herbicidal activity against Monochoria vaginalis at 100 g a.i/ha measured after 14 days; type: functional, organism-based
Cyperus difformis [24] = test: Post-emergence herbicidal activity against Cyperus difformis assessed as bleaching of stem/leaf parts; type: functional, organism-based; also: test concentration or dose not given here
Ammannia multiflora [25] = test: Pre-emergence herbicidal activity against Ammannia multiflora at 500 g a.i/ha measured after 14 days; type: functional, organism-based
Echinochloa oryzicola [26] = test: Pre-emergence herbicidal activity against Echinochloa oryzicola at 500 g a.i/ha measured after 14 days; type: functional, organism-based
Lindernia procumbens [27] = test: Pre-emergence herbicidal activity against Lindernia procumbens at 100 g a.i/ha measured after 14 days; type: functional, organism-based
Cyperus difformis [28] = test: Pre-emergence herbicidal activity against Cyperus difformis at 500 g a.i/ha measured after 14 days; type: functional, organism-based
Echinochloa oryzicola [29] = test: Post-emergence herbicidal activity against Echinochloa oryzicola assessed as bleaching of stem/leaf parts; type: functional, organism-based
Rotala indica [30] = test: Pre-emergence herbicidal activity against Rotala indica at 33 g a.i/ha measured after 14 days; type: functional, organism-based
Elatine triandra [31] = test: Pre-emergence herbicidal activity against Elatine triandra at 100 g a.i/ha measured after 14 days; type: functional, organism-based
Elatine triandra [32] = test: Pre-emergence herbicidal activity against Elatine triandra assessed as bleaching of stem/leaf parts; type: functional, organism-based
Echinochloa oryzicola [33] = test: Pre-emergence herbicidal activity against Echinochloa oryzicola at 100 g a.i/ha measured after 14 days; type: functional, organism-based
Elatine triandra [34] = test: Pre-emergence herbicidal activity against Elatine triandra at 500 g a.i/ha measured after 14 days; type: functional, organism-based
Pontederia vaginalis [35] = test: Pre-emergence herbicidal activity against Monochoria vaginalis at 500 g a.i/ha measured after 14 days; type: functional, organism-based
Elatine triandra [36] = test: Post-emergence herbicidal activity against Elatine triandra assessed as bleaching of stem/leaf parts; type: functional, organism-based; also: test concentration or dose not given here
[37] = system: Schoenoplectiella juncoides; test: Pre-emergence herbicidal activity against Schoenoplectiella juncoides at 33 g a.i/ha measured after 14 days; type: functional, organism-based
Oryza sativa [38] = test: Phytotoxicity against Oryza sativa cv. Koshihikari (rice) at 500 g a.i/ha measured after 14 days; type: organism-based; conditions: in vivo, 336 h
Rotala indica [39] = test: Pre-emergence herbicidal activity against Rotala indica at 100 g a.i/ha measured after 14 days; type: functional, organism-based
Lindernia procumbens [40] = test: Post-emergence herbicidal activity against Lindernia procumbens assessed as bleaching of stem/leaf parts; type: functional, organism-based; also: test concentration or dose not given here
Pontederia vaginalis [41] = test: Post-emergence herbicidal activity against Monochoria vaginalis assessed as bleaching of stem/leaf parts; type: functional, organism-based
Oryza sativa [42] = test: Phytotoxicity against Oryza sativa cv. Koshihikari (rice) at 100 g a.i/ha measured after 14 days; type: organism-based; conditions: in vivo, 336 h
Cyperus difformis [43] = test: Pre-emergence herbicidal activity against Cyperus difformis at 100 g a.i/ha measured after 14 days; type: functional, organism-based
Oryza sativa [44] = test: Phytotoxicity against Oryza sativa cv. Koshihikari (rice) at 10 g a.i/ha measured after 14 days; type: organism-based; conditions: in vivo, 336 h
[45] = system: Schoenoplectiella juncoides; test: Pre-emergence herbicidal activity against Schoenoplectiella juncoides at 10 g a.i/ha measured after 14 days; type: functional, organism-based
Echinochloa oryzicola [46] = test: Pre-emergence herbicidal activity against Echinochloa oryzicola at 10 g a.i/ha measured after 14 days; type: functional, organism-based
Pontederia vaginalis [47] = test: Pre-emergence herbicidal activity against Monochoria vaginalis at 1 0 g a.i/ha measured after 14 days; type: functional, organism-based
Ammannia multiflora [48] = test: Pre-emergence herbicidal activity against Ammannia multiflora at 10 g a.i/ha measured after 14 days; type: functional, organism-based
Elatine triandra [49] = test: Pre-emergence herbicidal activity against Elatine triandra at 10 g a.i/ha measured after 14 days; type: functional, organism-based
Cyperus difformis [50] = test: Pre-emergence herbicidal activity against Cyperus difformis at 10 g a.i/ha measured after 14 days; type: functional, organism-based
Lindernia procumbens [51] = test: Pre-emergence herbicidal activity against Lindernia procumbens at 10 g a.i/ha measured after 14 days; type: functional, organism-based
Rotala indica [52] = test: Pre-emergence herbicidal activity against Rotala indica at 10 g a.i/ha measured after 14 days; type: functional, organism-based

SMILES: Cn1cc(C(=O)Nc2ccccc2)c(Oc2cccc(C(F)(F)F)c2)n1
- Activity (Rotala indica [1]): Active
- Activity (Ammannia multiflora [2]): Active
- Activity (Echinochloa oryzicola [3]): inactive
- Activity [4]: Active
- Activity (Echinochloa oryzicola [5]): Active
- Activity (Lindernia procumbens [6]): Active
- Activity (Rotala indica [7]): Active
- Activity (Oryza sativa [8]): Non-toxic
- Activity (Lindernia procumbens [9]): Active
- Activity [10]: Active
- Activity (Lindernia procumbens [11]): Active
- Activity [12]: Active
- Activity (Cyperus difformis [13]): Active
- Activity (Cyperus difformis [14]): Active
- Activity (Pontederia vaginalis [15]): Active
- Activity (Ammannia multiflora [16]): Active
- Activity (Ammannia multiflora [17]): Active
- Activity (Pontederia vaginalis [18]): Active
- Activity (Elatine triandra [19]): Active
- Activity (Ammannia multiflora [20]): Active
- Activity (Rotala indica [21]): Active
- Activity [22]: Active
- Activity (Pontederia vaginalis [23]): Active
- Activity (Cyperus difformis [24]): Active
- Activity (Ammannia multiflora [25]): Active
- Activity (Echinochloa oryzicola [26]): Active
- Activity (Lindernia procumbens [27]): Active
- Activity (Cyperus difformis [28]): Active
- Activity (Echinochloa oryzicola [29]): Active
- Activity (Rotala indica [30]): Active
- Activity (Elatine triandra [31]): Active
- Activity (Elatine triandra [32]): Active
- Activity (Echinochloa oryzicola [33]): Active
- Activity (Elatine triandra [34]): Active
- Activity (Pontederia vaginalis [35]): Active
- Activity (Elatine triandra [36]): Active
- Activity [37]: inactive
- Activity (Oryza sativa [38]): Toxic
- Activity (Rotala indica [39]): Active
- Activity (Lindernia procumbens [40]): Active
- Activity (Pontederia vaginalis [41]): Active
- Activity (Oryza sativa [42]): Non-toxic
- Activity (Cyperus difformis [43]): Active

SMILES: Cn1cc(C(=O)Nc2ccc(F)cc2F)c(Oc2ccc(Cl)c(C(F)(F)F)c2)n1
- Activity (Rotala indica [1]): Active
- Activity (Ammannia multiflora [2]): Active
- Activity (Oryza sativa [44]): Non-toxic
- Activity (Echinochloa oryzicola [3]): Active
- Activity [4]: Active
- Activity (Echinochloa oryzicola [5]): Active
- Activity (Rotala indica [7]): Active
- Activity (Oryza sativa [8]): Non-toxic
- Activity [45]: Active
- Activity (Echinochloa oryzicola [46]): inactive
- Activity (Lindernia procumbens [9]): Active
- Activity (Lindernia procumbens [11]): Active
- Activity (Pontederia vaginalis [47]): Active
- Activity (Ammannia multiflora [48]): Active
- Activity (Cyperus difformis [13]): Active
- Activity (Cyperus difformis [14]): Active
- Activity (Elatine triandra [49]): Active
- Activity (Pontederia vaginalis [15]): Active
- Activity (Ammannia multiflora [16]): Active
- Activity (Pontederia vaginalis [18]): Active
- Activity (Elatine triandra [19]): Active
- Activity (Cyperus difformis [50]): Active
- Activity (Ammannia multiflora [20]): Active
- Activity (Lindernia procumbens [51]): Active
- Activity [22]: Active
- Activity (Cyperus difformis [24]): Active
- Activity (Echinochloa oryzicola [29]): Active
- Activity (Rotala indica [30]): Active
- Activity (Rotala indica [52]): Active
- Activity (Elatine triandra [32]): Active
- Activity (Elatine triandra [36]): Active
- Activity [37]: Active
- Activity (Lindernia procumbens [40]): Active
- Activity (Pontederia vaginalis [41]): Active

SMILES: CCn1cc(C(=O)Nc2ccc(F)cc2F)c(Oc2cccc(C(F)(F)F)c2)n1
- Activity (Rotala indica [1]): Active
- Activity (Ammannia multiflora [2]): Active
- Activity (Oryza sativa [44]): Non-toxic
- Activity (Echinochloa oryzicola [3]): Active
- Activity [4]: Active
- Activity (Echinochloa oryzicola [5]): Active
- Activity (Rotala indica [7]): Active
- Activity (Oryza sativa [8]): Non-toxic
- Activity [45]: inactive
- Activity (Echinochloa oryzicola [46]): Active
- Activity (Lindernia procumbens [9]): Active
- Activity (Lindernia procumbens [11]): Active
- Activity (Pontederia vaginalis [47]): Active
- Activity (Ammannia multiflora [48]): Active
- Activity (Cyperus difformis [13]): Active
- Activity (Cyperus difformis [14]): Active
- Activity (Elatine triandra [49]): Active
- Activity (Pontederia vaginalis [15]): Active
- Activity (Ammannia multiflora [16]): Active
- Activity (Pontederia vaginalis [18]): Active
- Activity (Elatine triandra [19]): Active
- Activity (Cyperus difformis [50]): Active
- Activity (Ammannia multiflora [20]): Active
- Activity (Lindernia procumbens [51]): Active
- Activity [22]: Active
- Activity (Cyperus difformis [24]): Active
- Activity (Echinochloa oryzicola [29]): Active
- Activity (Rotala indica [30]): Active
- Activity (Rotala indica [52]): Active
- Activity (Elatine triandra [32]): Active
- Activity (Elatine triandra [36]): Active
- Activity [37]: Active
- Activity (Lindernia procumbens [40]): Active
- Activity (Pontederia vaginalis [41]): Active

SMILES: Cn1cc(C(=O)Nc2ccc(F)cc2F)c(Oc2cccc(C(F)(F)F)c2)n1
- Activity (Rotala indica [1]): Active
- Activity (Ammannia multiflora [2]): Active
- Activity (Oryza sativa [44]): Non-toxic
- Activity (Echinochloa oryzicola [3]): Active
- Activity [4]: Active
- Activity (Echinochloa oryzicola [5]): Active
- Activity (Rotala indica [7]): Active
- Activity (Oryza sativa [8]): Non-toxic
- Activity [45]: inactive
- Activity (Echinochloa oryzicola [46]): inactive
- Activity (Lindernia procumbens [9]): Active
- Activity (Lindernia procumbens [11]): Active
- Activity (Pontederia vaginalis [47]): inactive
- Activity (Ammannia multiflora [48]): inactive
- Activity (Cyperus difformis [13]): Active
- Activity (Cyperus difformis [14]): Active
- Activity (Elatine triandra [49]): inactive
- Activity (Pontederia vaginalis [15]): Active
- Activity (Ammannia multiflora [16]): Active
- Activity (Pontederia vaginalis [18]): Active
- Activity (Elatine triandra [19]): Active
- Activity (Cyperus difformis [50]): inactive
- Activity (Ammannia multiflora [20]): Active
- Activity (Lindernia procumbens [51]): inactive
- Activity [22]: Active
- Activity (Cyperus difformis [24]): Active
- Activity (Echinochloa oryzicola [29]): Active
- Activity (Rotala indica [30]): Active
- Activity (Rotala indica [52]): inactive
- Activity (Elatine triandra [32]): Active
- Activity (Elatine triandra [36]): Active
- Activity [37]: Active
- Activity (Lindernia procumbens [40]): Active
- Activity (Pontederia vaginalis [41]): Active
